Assay results from article PMC11876601 (Molecular Systems Biology, 2025).

What was measured:
BMP2K = target: T1, BMP2K (Homo sapiens, UniProt Q9NSY1); assay: Kinobeads competition pulldown in AsPC-1 lysate; type: binding
T1 construct: endogenous in cells; host or cells: AsPC-1 lysate
Method: (§1) This was followed by incubation with Kinobeads ε (17.5 µl of settled beads) for 30 min at 4 °C to enrich kinases. […] Enriched proteins were reduced with 50 mM DTT in 8 M urea, 40 mM Tris-HCl, pH 7.4 for 30 min at room temperature, and alkylated with 55 mM chloroacetamide. After reducing the urea concentration to 1–2 M, proteins were digested with trypsin at 37 °C for 16 h. Subsequently, eluted peptides were desalted using SepPak tC18 µElution plates (Waters), freeze-dried by vacuum centrifugation, and stored at −20 °C.
(§2) For LC-MS/MS, dried peptides were reconstituted in 0.1% formic acid and analyzed on a Dionex Ultimate3000 nano HPLC (Thermo Scientific) coupled to an Orbitrap Fusion Tribrid mass spectrometer (Thermo Scientific), which was run in data-dependent mode. Peptides were first delivered to a trap column (100 µm × 2 cm, packed in-house with Reprosil-Gold C18 ODS-3 5 µm resin, Dr. Maisch, Ammerbuch) and subsequently washed with solvent A0 (0.1% formic acid in HPLC grade water) at 5 µl/min for 10 min. […] For MS2, up to 12 peptide precursors were isolated (isolation width of 1.2 Th) and subjected to HCD fragmentation using 30% normalized collision energy. […] The duration of dynamic exclusion was set to 30 s.
(§3) Oxidized methionine and N-terminal acetylation were set as variable modification, and cysteine carbamidomethylation was set as fixed modification. Label-free quantification (LFQ) and match-between-runs were enabled. All searches were performed with 1% PSM and protein FDR.
(§4) Proteins were filtered by potential contaminants, reversed hits and proteins identified only by site. Residual binding of proteins was calculated from LFQ intensities as the ratio between drug doses and vehicle. […] Only kinases quantified with at least 4 unique peptides in the vehicle experiment were considered. Potential targets were further curated through manual inspection of dose-dependent reduction in MS/MS and unique peptide counts.

AAK1 = target: T2, AAK1 (Homo sapiens, UniProt Q2M2I8); assay: Kinobeads competition pulldown in AsPC-1 lysate; type: binding
T2 construct: endogenous in cells; host or cells: AsPC-1 lysate
Method: as §1, §2, §3, §4

CSNK2A2 = target: T3, CSNK2A2 (Homo sapiens, UniProt P19784); assay: Kinobeads competition pulldown in AsPC-1 lysate; type: binding
T3 construct: endogenous in cells; host or cells: AsPC-1 lysate
Method: as §1, §2, §3, §4

ACVR2 (Homo sapiens) = target: T4, ACVR2 (Homo sapiens); assay: Kinobeads competition pulldown in AsPC-1 lysate; type: binding; details: read-out: KDapp
T4 construct: endogenous in cells; host or cells: AsPC-1 lysate
Method: as §1, §2, §3, §4

ACVR1 = target: T5, ACVR1 (Homo sapiens, UniProt Q04771); assay: Kinobeads competition pulldown in AsPC-1 lysate; type: binding
T5 construct: endogenous in cells; host or cells: AsPC-1 lysate
Method: as §1, §2, §3, §4

GSKA = target: T6, GSKA (Homo sapiens, UniProt P49840); assay: Kinobeads competition pulldown in AsPC-1 lysate; type: binding; details: read-out: KDapp
T6 construct: endogenous in cells; host or cells: AsPC-1 lysate
Method: as §1, §2, §3, §4

GSKB = target: T7, GSKB (Homo sapiens, UniProt P49841); assay: Kinobeads competition pulldown in AsPC-1 lysate; type: binding; details: read-out: KDapp
T7 construct: endogenous in cells; host or cells: AsPC-1 lysate
Method: as §1, §2, §3, §4

TGFBR2 = test system: TGFBR2; parameters: method as in Klaeger et al. (2017); details: lysate 4 cell line mix (Colo205, K-562, MV-4-11, and SK-N-BE(2)), Kinobeads y, ref Klaeger et al. (2017); cited from earlier work
NTRK1 = test system: NTRK1; parameters: method as in Klaeger et al. (2017); details: lysate 4 cell line mix (Colo205, K-562, MV-4-11, and SK-N-BE(2)), Kinobeads y, ref Klaeger et al. (2017); cited from earlier work
PANC-1 = assay: cells; parameters: ATPlite luminescence viability of PDAC cell lines, 11-dose single-agent curves, 4-parameter fit; details: Homo sapiens, PANC-1, 72 h, read-out: EC50 [nM]
How it was run: (§5)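 Drug-combination screening used cells plated at 1000 to 5000 per well one day before treatment. Final DMSO was 0.2%. Each plate held untreated negative-control wells and 5 µM staurosporine positive-control wells.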

PRKAB2 = test system: PRKAB2; parameters: method as in Klaeger et al. (2017); details: lysate 4 cell line mix (Colo205, K-562, MV-4-11, and SK-N-BE(2)), Kinobeads y, ref Klaeger et al. (2017); cited from earlier work
TANK = details: 5 cell line mix lysate, Kinobeads ε, ref Reinecke et al. (2023), cited from earlier work
SIK3 = test system: SIK3; parameters: method as in Reinecke et al. (2023); details: SIK3, 5 cell line mix lysate, Kinobeads ε, ref Reinecke et al. (2023), cited from earlier work
LCK = target: LCK; parameters: method as in Reinecke et al. (2023); details: 5 cell line mix lysate, Kinobeads ε, ref Reinecke et al. (2023), cited from earlier work
JAK1 = test system: JAK1; parameters: method as in Reinecke et al. (2023); details: JAK1, 5 cell line mix lysate, Kinobeads ε, ref Reinecke et al. (2023), cited from earlier work
MAPKAPK5 = test system: MAPKAPK5; parameters: method as in Reinecke et al. (2023); details: MAPKAPK5, 5 cell line mix lysate, Kinobeads ε, ref Reinecke et al. (2023), cited from earlier work
INCENP = target: INCENP; parameters: method as in Reinecke et al. (2023); details: 5 cell line mix lysate, Kinobeads ε, ref Reinecke et al. (2023), cited from earlier work
HuP-T4 = assay: cells; parameters: ATPlite luminescence viability of PDAC cell lines, 11-dose single-agent curves, 4-parameter fit; details: Homo sapiens, HuP-T4, 72 h, read-out: EC50 [nM]
How it was run: as §5

[1] = Kinobeads residual binding curve

`CNCc1ccc(-c2cc(-c3nc(-c4ccc(S(=O)(=O)C(C)C)cc4)cnc3N)on2)cc1` [Berzosertib] gave a Kd (BMP2K; AsPC-1 lysate, read-out: KDapp) of 19.9 nM, an EC50 (BMP2K; [1]) of 35.7 nM and a Kd (AAK1; AsPC-1 lysate, read-out: KDapp) of 19.3 nM. For the same molecule, the EC50 (AAK1; [1]) was 36.7 nM, the Kd (CSNK2A2; AsPC-1 lysate, read-out: KDapp) was 219 nM and the EC50 (CSNK2A2; [1]) was 406 nM. For the same molecule, the Kd (ACVR2 (Homo sapiens)) was < 1 nM, the Kd (ACVR1; AsPC-1 lysate, read-out: KDapp) was 0.83 nM and the EC50 (ACVR1; [1]) was 2.11 nM.
For `Nc1nn2cc(F)cnc2c1C(=O)Nc1cncc(F)c1N1CCC(C(=O)N2CCN(C3COC3)CC2)CC1` [Gartisertib], the Kd (GSKA) was < 10 nM and the Kd (GSKB) was < 10 nM.
In the case of `C[C@]12O[C@H](C[C@]1(O)CO)n1c3ccccc3c3c4c(c5c6ccccc6n2c5c31)CNC4=O` [Lestaurtinib], the EC50 (TGFBR2) is given as […], the EC50 (NTRK1) is given as 795 nM and the EC50 (PANC-1) is given as > 10000 nM. For the same molecule, the EC50 (PRKAB2) was 3.52 µM.
In the case of `COc1cc(N2CCC(N3CCN(C)CC3)CC2)ccc1Nc1ncc(Cl)c(Nc2ccccc2P(C)(C)=O)n1` [Brigatinib], the Kd (TANK; read-out: KDapp) is listed as 684 nM, the EC50 (TANK) is listed as 1070 nM and the pKDapp (TANK) is listed as 6.17. For the same molecule, the EC50 (SIK3) was 1770 nM, the pKDapp (SIK3) was 5.84 and the Kd (SIK3; read-out: KDapp) was 1450 nM. The Kd (LCK; read-out: KDapp) was 963 nM, the EC50 (LCK) was 2190 nM and the pKDapp (LCK) was 6.02. The EC50 (JAK1) was 373 nM, the pKDapp (JAK1) was 6.86 and the Kd (JAK1; read-out: KDapp) was 139 nM. The EC50 (MAPKAPK5) was 62.7 nM, the pKDapp (MAPKAPK5) was 7.23 and the Kd (MAPKAPK5; read-out: KDapp) was 58.3 nM. The Kd (INCENP; read-out: KDapp) was 1030 nM, the EC50 (INCENP) was 1160 nM and the pKDapp (INCENP) was 5.99.
For `C[C@@H]1COCCN1c1cc(-c2ccnn2C)c2ccnc(-c3ccn[nH]3)c2n1` [Elimusertib], the EC50 (HuP-T4) was 359 nM.
